{"source": "paper PMC12044326", "about": "(Clinical Pharmacology in Drug Development, 2025)", "key": {"CYP1A2": {"tested_on": "CYP1A2", "details": "hepatocytes", "description": "respectively; XenoTech) were treated once daily for 3 consecutive days and cultured according\nto previously described methods.2-4 Each culture well was treated with supplemented modified Chee's medium (0.2 mL) containing 0.1% v/v d imethylsulfoxide (DM SO ; vehicle control),\nμmol/L) or 1 of 3 known human CYP enzyme inducers (omeprazole 50 μmol/L, phenobarbital\nCultures were visualized with a\nrepresentative well from each treatment group was photographed with a PAXcam 5 (MIS, Inc.\nVilla Park, IL, USA) digital camera to document morphological integrity.\nβ-mercaptoethanol (1:100), and the cell lysates were stored at −80°C. For each hepatocyte preparation, media from 3 wells per treatment group were aspirated, and 250 μL buf f er RLT was added to each well. The cell lysates were mixed by shaking (10 minutes at 800 rpm) and total RNA was isolated with a MagMAX-96 (Ambion/ Thermo Fisher Scientific) for Microarrays Kit using the RNeasy Mini Kit (Qiagen Inc., Germantown, MD, USA). The analysis of RNA integrity was carried out with the RNA 6000 Nano Assay Kit on an Agilent 2100 Bioanalyzer (Agilent Technologies, Inc., Santa Clara, CA, USA). […]\nprepared samples were stored at −20°C prior to analysis by quantitative real-time (qRT)- […]"}, "human hepatocytes": {"tested_on": "human hepatocytes", "details": "both, 10 μmol/L"}, "[1]": {"details": "cited from earlier work"}, "CYP2C9": {"molecular_target": "CYP2C9 (Homo sapiens, UniProt P11712)", "sequence (P11712 whole entry)": "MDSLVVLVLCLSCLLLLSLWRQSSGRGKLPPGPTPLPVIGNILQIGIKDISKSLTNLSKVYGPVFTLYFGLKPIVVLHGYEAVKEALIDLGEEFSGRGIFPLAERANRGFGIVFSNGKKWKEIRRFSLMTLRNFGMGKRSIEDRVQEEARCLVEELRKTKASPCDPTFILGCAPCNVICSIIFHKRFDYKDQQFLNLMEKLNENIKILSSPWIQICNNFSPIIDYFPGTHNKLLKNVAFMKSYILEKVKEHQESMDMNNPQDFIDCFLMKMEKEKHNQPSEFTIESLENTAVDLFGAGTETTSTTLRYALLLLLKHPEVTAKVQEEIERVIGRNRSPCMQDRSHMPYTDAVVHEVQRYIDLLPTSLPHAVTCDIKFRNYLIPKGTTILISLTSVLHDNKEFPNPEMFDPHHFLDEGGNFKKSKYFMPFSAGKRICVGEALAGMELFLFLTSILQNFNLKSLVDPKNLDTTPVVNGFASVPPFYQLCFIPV", "assay": "Reversible CYP inhibition in human liver microsomes"}, "physchem": {"assay": "physchem", "type": "physicochemical", "excerpt": "(§1) […]. […] […]. […] […]"}, "OATP1B1": {"molecular_target": "T1, OATP1B1 (Homo sapiens, UniProt Q9Y6L6)", "T1 sequence (Q9Y6L6 1-691)": "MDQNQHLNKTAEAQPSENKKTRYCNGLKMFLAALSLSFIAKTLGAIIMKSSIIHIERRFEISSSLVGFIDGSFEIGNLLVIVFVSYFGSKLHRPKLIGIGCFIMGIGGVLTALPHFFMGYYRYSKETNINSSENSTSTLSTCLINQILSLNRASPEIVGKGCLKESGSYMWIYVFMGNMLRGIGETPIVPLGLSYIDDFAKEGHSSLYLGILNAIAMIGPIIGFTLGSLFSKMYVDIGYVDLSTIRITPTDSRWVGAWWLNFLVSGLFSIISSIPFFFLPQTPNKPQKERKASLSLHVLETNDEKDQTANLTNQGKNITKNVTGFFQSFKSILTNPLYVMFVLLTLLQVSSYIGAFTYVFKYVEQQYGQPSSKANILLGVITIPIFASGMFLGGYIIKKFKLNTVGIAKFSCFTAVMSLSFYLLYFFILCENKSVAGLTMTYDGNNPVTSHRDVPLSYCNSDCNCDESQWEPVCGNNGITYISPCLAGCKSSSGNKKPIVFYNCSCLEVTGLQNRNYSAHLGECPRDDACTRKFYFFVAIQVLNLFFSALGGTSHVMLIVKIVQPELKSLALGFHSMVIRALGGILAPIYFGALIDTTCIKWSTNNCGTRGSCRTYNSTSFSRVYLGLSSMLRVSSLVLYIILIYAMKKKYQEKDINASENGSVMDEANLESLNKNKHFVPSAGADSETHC"}, "in vitro": {"assay": "in vitro", "type": "in vitro ADME", "excerpt": "as §1"}, "OATP1B3": {"molecular_target": "T2, OATP1B3 (Homo sapiens, UniProt Q9NPD5)", "T2 sequence (Q9NPD5 1-702)": "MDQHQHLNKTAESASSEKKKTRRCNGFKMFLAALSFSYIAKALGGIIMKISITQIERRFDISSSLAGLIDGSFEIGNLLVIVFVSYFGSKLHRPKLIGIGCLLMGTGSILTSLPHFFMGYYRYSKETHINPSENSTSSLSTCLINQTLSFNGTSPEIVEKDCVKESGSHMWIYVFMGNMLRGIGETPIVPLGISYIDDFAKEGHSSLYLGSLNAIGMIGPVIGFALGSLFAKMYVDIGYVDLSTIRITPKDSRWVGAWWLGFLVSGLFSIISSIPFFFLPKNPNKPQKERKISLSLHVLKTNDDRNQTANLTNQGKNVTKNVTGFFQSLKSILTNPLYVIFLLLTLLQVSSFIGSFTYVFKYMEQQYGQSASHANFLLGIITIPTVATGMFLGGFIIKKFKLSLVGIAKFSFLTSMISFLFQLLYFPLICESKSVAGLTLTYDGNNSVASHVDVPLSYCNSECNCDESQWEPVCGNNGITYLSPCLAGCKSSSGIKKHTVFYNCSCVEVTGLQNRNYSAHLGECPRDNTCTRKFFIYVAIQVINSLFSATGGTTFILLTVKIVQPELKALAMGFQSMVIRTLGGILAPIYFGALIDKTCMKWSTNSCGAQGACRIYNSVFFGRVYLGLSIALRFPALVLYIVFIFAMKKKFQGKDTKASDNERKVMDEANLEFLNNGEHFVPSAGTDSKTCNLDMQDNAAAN"}, "CYP2C19": {"molecular_target": "CYP2C19 (Homo sapiens, UniProt P33261)", "sequence (P33261 whole entry)": "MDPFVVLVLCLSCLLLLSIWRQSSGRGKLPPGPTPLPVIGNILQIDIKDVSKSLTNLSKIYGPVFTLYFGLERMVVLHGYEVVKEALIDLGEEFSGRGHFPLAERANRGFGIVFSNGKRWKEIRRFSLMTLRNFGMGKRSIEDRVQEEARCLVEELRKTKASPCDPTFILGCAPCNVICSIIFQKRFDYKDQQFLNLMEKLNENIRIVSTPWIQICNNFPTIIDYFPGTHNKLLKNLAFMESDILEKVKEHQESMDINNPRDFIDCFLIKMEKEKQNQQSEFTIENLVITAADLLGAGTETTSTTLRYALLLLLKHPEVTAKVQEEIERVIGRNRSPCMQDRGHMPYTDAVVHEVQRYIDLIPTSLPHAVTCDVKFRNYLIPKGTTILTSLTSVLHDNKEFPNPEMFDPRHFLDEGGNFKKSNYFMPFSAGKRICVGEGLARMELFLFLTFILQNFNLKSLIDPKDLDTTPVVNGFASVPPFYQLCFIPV", "assay": "Reversible CYP inhibition in human liver microsomes"}, "UGT2B4": {"molecular_target": "T3, UGT2B4 (Homo sapiens, UniProt P06133)", "T3 sequence (P06133 24-528)": "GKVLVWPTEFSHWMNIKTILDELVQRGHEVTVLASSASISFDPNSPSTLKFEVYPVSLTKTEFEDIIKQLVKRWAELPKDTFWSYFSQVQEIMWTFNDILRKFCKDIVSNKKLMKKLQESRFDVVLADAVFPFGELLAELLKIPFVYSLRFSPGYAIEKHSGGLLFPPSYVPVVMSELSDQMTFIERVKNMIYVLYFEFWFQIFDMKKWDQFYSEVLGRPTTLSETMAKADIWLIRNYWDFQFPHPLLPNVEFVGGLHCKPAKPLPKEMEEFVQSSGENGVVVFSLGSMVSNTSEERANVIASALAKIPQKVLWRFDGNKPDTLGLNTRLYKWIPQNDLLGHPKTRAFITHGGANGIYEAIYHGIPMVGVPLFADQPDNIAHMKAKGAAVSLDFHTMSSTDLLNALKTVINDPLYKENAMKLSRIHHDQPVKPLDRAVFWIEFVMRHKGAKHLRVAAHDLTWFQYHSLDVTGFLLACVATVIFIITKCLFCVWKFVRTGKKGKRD", "details": "both, 20 min, pH 7.4"}, "[2]": {"details": "300 mg single oral dose, geometric mean, clinical ADME study, ref 5 of supplement"}}, "data": [{"smiles": "O=C(c1cccnc1-c1ccncc1)N1CCC(O)(Cc2ccccc2)CC1", "note": "[Soticlestat]", "values": [{"measurement": "induction of CYP1A2", "setting": "CYP1A2", "result": "nor did soticlestat induce"}, {"measurement": "metabolized by glucuronidation", "setting": "human hepatocytes", "result": "~66", "unit": "%"}, {"measurement": "oxidation via CYP3A", "setting": "human hepatocytes", "result": "~33", "unit": "%"}, {"measurement": "AUC0-inf observed", "setting": "[1]; [2]", "result": 1294, "unit": "ng·h/mL"}, {"measurement": "Cmax observed", "setting": "[1]; [2]", "result": 995, "unit": "ng/mL"}, {"measurement": "tmax observed", "setting": "[1]; 300 mg single oral dose, median, clinical ADME study, ref 5 of supplement", "result": 31.8, "unit": "min"}, {"measurement": "CLIV (mean IV clearance)", "setting": "[1]; IV microdose [14C] soticlestat 50 µg with oral 300 mg", "result": 28.7, "unit": "L/h"}, {"measurement": "CYP contribution to clearance", "setting": "[1]; human radiolabeled ADME study", "result": 9.5, "unit": "%"}, {"measurement": "cleared by UGT metabolism", "setting": "[1]; human radiolabeled ADME study", "result": 90.5, "unit": "%"}, {"measurement": "CLR (mean renal clearance)", "setting": "[1]; single oral dose [14C] soticlestat 300 mg, healthy volunteers", "result": 0.22, "unit": "L/h"}, {"measurement": "time‐ or metabolism‐dependent inhibition", "setting": "major CYP enzymes", "result": "did not exhibit time‐ or metabolism‐dependent inhibition"}, {"measurement": "Ki", "setting": "CYP2C9", "result": 15.6, "unit": "µM"}, {"measurement": "fumic", "setting": "CYP2C9; human", "result": 0.88}, {"measurement": "inhibition of CYP2C9", "setting": "CYP2C9; microsomes", "result": "low double‐digit micromolar values"}, {"measurement": "logP", "setting": "physchem", "result": 1.4}, {"measurement": "pKa", "setting": "physchem", "result": 3.37}, {"measurement": "Compound type", "setting": "physchem; PBPK input", "result": "Monoprotic base"}, {"measurement": "substrate for OATP1B1", "setting": "OATP1B1", "result": "not a substrate"}, {"measurement": "Main binding protein", "setting": "in vitro", "result": "AAG"}, {"measurement": "fraction unbound", "setting": "in vitro", "result": 0.066}, {"measurement": "substrate for OATP1B3", "setting": "OATP1B3", "result": "not a substrate"}, {"measurement": "Ki", "setting": "CYP2C19", "result": 9.5, "unit": "µM"}, {"measurement": "fumic", "setting": "CYP2C19; human", "result": 0.88}, {"measurement": "inhibition of CYP2C19", "setting": "CYP2C19; microsomes", "result": "low double‐digit micromolar values"}, {"measurement": "fm of total UGT mediated glucuronidation via UGT2B4", "setting": "UGT2B4", "result": "~90", "unit": "%"}]}]}
